In test [1] the target is T1, human full-length MKNK1 (Homo sapiens (Human), UniProt Q9BUB5, T344D). The test can be described thus: MKNK1 kinase high ATP assay (TR-FRET-based). Format: biochemical. The following applies: 2 mM ATP final conc.; 15 min preincubation with enzyme. How it is done:
MKNK1 Kinase High ATP Assay
MKNK1-inhibitory activity at high ATP of compounds of the present invention after their preincubation with MKNK1 was quantified employing the TR-FRET-based MKNK1 high ATP assay as described in the following paragraphs.
As substrate for the kinase reaction the biotinylated peptide biotin-Ahx-[…] (C-terminus in amide form) was used, which can be purchased e.g. from the company Biosyntan (Berlin-Buch, Germany).
(§1) For the assay 50 nL of a 100 fold concentrated solution of the test compound in DMSO was pipetted into a black low volume 384 well microtiter plate (Greiner Bio-One, Frickenhausen, Germany), 2 μL of a solution of MKNK1 in aqueous assay buffer [50 mM HEPES pH 7.5, 5 mM magnesium chloride, 1.0 mM dithiothreitol, 0.005% (v/v) Nonidet-P40 (Sigma)] was added and the mixture was incubated for 15 min at 22° C. to allow pre-binding of the test compounds to the enzyme before the start of the kinase reaction. Then the kinase reaction was started by the addition of 3 μL of a solution of adenosine-tri-phosphate (ATP, 3.3 mM=>final conc. in the 5 μL assay volume is 2 mM) and substrate (0.1 μM=>final conc. in the 5 μL assay volume is 0.06 μM) in assay buffer and the resulting mixture was incubated for a reaction time of 30 min at 22° C. The concentration of MKNK1 was adjusted depending of the activity of the enzyme lot and was chosen appropriate to have the assay in the linear range, typical concentrations were in the range of 0.003 μg/mL. The reaction was stopped by the addition of 5 μL of a solution of TR-FRET detection reagents (5 nM streptavidine-XL665 [Cisbio Bioassays, Codolet, France] and 1 nM anti-ribosomal protein S6 (pSer236)-antibody from Invitrogen [#44921G] and 1 nM LANCE EU-W1024 labeled ProteinG [Perkin-Elmer, product no. AD0071]) in an aqueous EDTA-solution (100 mM EDTA, 0.1% (w/v) bovine serum albumin in 50 mM HEPES pH 7.5).
(§2) The resulting mixture was incubated for 1 h at 22° C. to allow the formation of complex between the phosphorylated biotinylated peptide and the detection reagents. Subsequently the amount of phosphorylated substrate was evaluated by measurement of the resonance energy transfer from the Eu-chelate to the streptavidine-XL. Therefore, the fluorescence emissions at 620 nm and 665 nm after excitation at 350 nm were measured in a TR-FRET reader, e.g. a Rubystar (BMG Labtechnologies, Offenburg, Germany) or a Viewlux (Perkin-Elmer). The ratio of the emissions at 665 nm and at […] was taken as the measure for the amount of phosphorylated substrate. The data were normalised (enzyme reaction without inhibitor=0% inhibition, all other assay components but no enzyme=100% inhibition).

Test [2] concerns the target T1, human full-length MKNK1. The test can be described thus: MKNK1 kinase assay (MKNK1 TR-FRET assay). The settings on record: 10 μM ATP final conc.; 15 min preincubation with enzyme. Type of test: biochemical. How it is done:
MKNK1-inhibitory activity of compounds of the present invention was quantified employing the MKNK1 TR-FRET assay as described in the following paragraphs.
As substrate for the kinase reaction the biotinylated peptide biotin-Ahx-[…] (C-terminus in amide form) was used which can be purchased e.g. form the company Biosyntan (Berlin-Buch, Germany).
as §1, with “16.7 μM=>final” for “3.3 mM=>final”, “10 μM)” for “2 mM)”, “45” for “30”, “0.05 μg/ml.” for “0.003 μg/mL.”
as §2

Where a name gives a salt, the structure may show the parent alone.

T1 sequence (Q9BUB5 other isoform, or with tags, fused parts or gaps T344D): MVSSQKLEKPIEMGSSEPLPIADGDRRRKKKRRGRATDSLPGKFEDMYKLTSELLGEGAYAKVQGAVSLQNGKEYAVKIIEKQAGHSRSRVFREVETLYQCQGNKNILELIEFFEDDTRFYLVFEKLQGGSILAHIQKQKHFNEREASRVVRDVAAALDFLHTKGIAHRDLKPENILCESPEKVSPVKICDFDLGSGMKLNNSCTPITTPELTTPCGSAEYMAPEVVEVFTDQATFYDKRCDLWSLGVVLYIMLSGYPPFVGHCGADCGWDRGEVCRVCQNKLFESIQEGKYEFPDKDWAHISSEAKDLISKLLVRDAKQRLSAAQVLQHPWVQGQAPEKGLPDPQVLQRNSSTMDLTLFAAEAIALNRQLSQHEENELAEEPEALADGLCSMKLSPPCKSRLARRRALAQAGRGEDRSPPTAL

In the case of `N[C@@H](COc1ccc2ncc(-c3cc4ccccc4o3)n2n1)c1ccccc1` [Example 18, (1R)-2-{[3-(1-Benzofuran-2-yl)imidazo[1,2-b]pyridazin-6-yl]oxy}-1-phenylethanamine], the IC50 is 33 nM against human full-length MKNK1 [1] and 22 nM against human full-length MKNK1 [2].

Regarding `NCCOc1ccc2ncc(-c3cc4ccccc4o3)n2n1` [Example 12, 2-{[3-(1-Benzofuran-2-yl)imidazo[1,2-b]pyridazin-6-yl]oxy}ethanamine], the 50% inhibitory concentration (IC50) came to 27 nM against human full-length MKNK1 [1] and 10 nM at human full-length MKNK1 [2].

In the case of `C[C@@H](N)COc1ccc2ncc(-c3cc4ccccc4o3)n2n1` [Example 42, (2R)-1-{[3-(1-Benzofuran-2-yl)imidazo[1,2-b]pyridazin-6-yl]oxy}propan-2-amine], the IC50 was determined as 43 nM on human full-length MKNK1 [1] and 15 nM against human full-length MKNK1 [2].

Regarding `COc1ccc2oc(-c3cnc4ccc(OCCN)nn34)cc2c1` [Example 6, 2-{[3-(5-Methoxy-1-benzofuran-2-yl)imidazo[1,2-b]pyridazin-6-yl]oxy}ethanamine], the IC50 against human full-length MKNK1 [1] turned out to be 13 nM; on human full-length MKNK1 [2], 6 nM.

On to `COc1ccc2oc(-c3cnc4ccc(O[C@H]5C[C@H](N)C5)nn34)cc2c1` [Example 38, trans-3-{[3-(5-Methoxy-1-benzofuran-2-yl)imidazo[1,2-b]pyridazin-6-yl]oxy}-cyclobutanamine], for which the IC50 against human full-length MKNK1 [1] stood at 6 nM; against human full-length MKNK1 [2] it was 3 nM.

In the case of `NCC(Cc1ccccc1)Oc1ccc2ncc(-c3cc4ccccc4o3)n2n1` (stereo not shown) [Example 26, 2-{[3-(1-Benzofuran-2-yl)imidazo[1,2-b]pyridazin-6-yl]oxy}-3-phenylpropan-1-amine salt with formic acid], the results for the half-inhibitory concentration (IC50) against human full-length MKNK1 [1] and against human full-length MKNK1 [2] were 25 nM and 15 nM, respectively.

`N[C@H]1C[C@H](Oc2ccc3ncc(-c4cc5c(F)cccc5o4)n3n2)C1` [Example 36, trans-3-{[3-(4-Fluoro-1-benzofuran-2-yl)imidazo[1,2-b]pyridazin-6-yl]oxy}-cyclobutanamine]: the IC50 against human full-length MKNK1 [1] was found to be 2 nM; at human full-length MKNK1 [2], 1 nM.

With `N[C@H]1CCC[C@@H]1Oc1ccc2ncc(-c3cc4ccccc4o3)n2n1` [Example 24, (1S,2S)-2-{[3-(1-Benzofuran-2-yl)imidazo[1,2-b]pyridazin-6-yl]oxy}cyclopentanamine], the IC50 against human full-length MKNK1 [1] was found to be 19 nM; against human full-length MKNK1 [2], 10 nM.

On to `C[C@H](N)COc1ccc2ncc(-c3cc4c(F)cccc4o3)n2n1` [Example 45, (2S)-1-{[3-(4-Fluoro-1-benzofuran-2-yl)imidazo[1,2-b]pyridazin-6-yl]oxy}-propan-2-amine], for which the IC50 on human full-length MKNK1 [1] was determined as 71 nM; on human full-length MKNK1 [2], 17 nM.

As for `N[C@H](COc1ccc2ncc(-c3cc4ccccc4o3)n2n1)Cc1ccccc1` [Example 50, (2S)-1-{[3-(1-Benzofuran-2-yl)imidazo[1,2-b]pyridazin-6-yl]oxy}-3-phenylpropan-2-amine], the IC50 came to 54 nM against human full-length MKNK1 [1] and 27 nM against human full-length MKNK1 [2].

Take `COc1cccc2oc(-c3cnc4ccc(OCCCN)nn34)cc12` [Example 4, 3-{[3-(4-Methoxy-1-benzofuran-2-yl)imidazo[1,2-b]pyridazin-6-yl]oxy}propan-1-amine]: the IC50 against human full-length MKNK1 [1] was determined as 15 nM; against human full-length MKNK1 [2], 5 nM.

The record behind these values is US9499547B2 (BAYER INTELLECTUAL PROPERTY GMBH, priority 2011, dated 2016).
